In US7105508B1, “Integrin receptors antagonists” (Abbott GmbH & Co. KG, priority 1999, dated 2006):

target: T1, integrin αvβ3 (Homo sapiens, UniProt P05106+P06756); experiment: Integrin αvβ3 assay (competition with vitronectin for solid phase-bound integrin αvβ3); conditions: competition with human vitronectin for binding to solid phase-bound integrin αvβ3 from human placenta; qualitative ranking only
T1 construct: from tissue; host or cells: human placenta
Method: Integrin αvβ3 antagonists were identified and assessed by using an assay system based on competition between the natural integrin αvβ3 ligand vitronectin and the test substance for binding to solid phase-bound integrin αvβ3.
• Coat microtiter plates with 250 ng/ml integrin αvβ3 in 0.05 M NaHCO3 pH 9.2; 0.1 ml/well; • saturate with 1% milk powder/assay buffer; 0.3 ml/well; 0.5 h/RT • wash 3× with 0.05% Tween 20/assay buffer • test substance in 0.1% milk powder/assay buffer, 50 μl/well+0 μg/ml or 2 μg/ml human vitronectin (Boehringer Ingelheim T007) in 0.1% milk powder/assay buffer, 50 μl/well; 1 h/RT • wash 3× with 0.05% Tween 20/assay buffer • 1 μg/ml anti-human vitronectin antibody coupled to peroxidase (Kordia SAVN-APHRP) in 0.1% milk powder/assay buffer; 0.1 ml/well; 1 h/RT • wash 3× with 0.05% Tween 20/assay buffer • 0.1 ml/well peroxidase substrate • stop reaction with 0.1 ml/well 2 M H2SO4 • measure absorption at 450 nm
Integrin αvβ3: human placenta is solubilized with Nonidet, and integrin αvβ3 is affinity-purified on a GRGDSPK matrix (elution with EDTA). Contamination by integrin αIIbβ3 and human serum albumin, and the detergent and EDTA, are removed by anion exchange chromatography.
Assay buffer: 50 mM Tris pH 7.5; 100 mM NaCl; 1 mM CaCl2; 1 mM MgCl2; 10 μM MnCl2
Peroxidase substrate: mix 0.1 ml of TMB solution (42 mM TMB in DMSO) and 10 ml of substrate buffer (0.1 M Na acetate, pH 4.9) and then add 14.7 μl of 3% H2O2.
Various dilutions of the test substances are used in the assay, and the IC50 values are determined (concentration of the antagonist at which 50% of the ligand is displaced).

SMILES | IC50 values (concentration of the antagonist at which 50% of the ligand is displaced)
CC(=O)OC1c2ccccc2C(=O)N(CC(=O)NCc2ccc(Nc3nc4ccccc4[nH]3)cc2)c2ccccc21 (stereo not shown) [Example I.B.37, 5-(2-{[4-(1H-Benzimidazol-2-ylamino)benzyl]amino}-2-oxoethyl)-6-oxo-6,11-dihydro-5H-dibenzo[b,e]azepin-11-yl acetate] | best results
CC(=O)OC1c2ccccc2C(=O)N(CC(=O)NCc2cnc(NC(=N)N)s2)c2ccccc21 (stereo not shown) [Example I.B.46, 5-(2-{[(2-{[Amino(imino)methyl]amino}-1,3-thiazol-5-yl)-methyl]amino}-2-oxoethyl)-6-oxo-6,11-dihydro-5H-dibenzo[b,e]-azepin-11-yl acetate] | best results
O=C(O)CC1c2ccccc2C(=O)N(CC(=O)NCc2ccc(NC(=O)NCc3ccccc3)cc2)c2ccccc21 (stereo not shown) [Example I.B.52, (5-{2-[(4-{[(Benzylamino)carbonyl]amino}benzyl)amino]-2-oxoethyl}-6-oxo-6,11-dihydro-5H-dibenzo[b,e]azepin-11-yl)acetic acid] | best results
CC(=O)OC1c2ccccc2C(=O)N(Cc2nc(C(=O)NCc3cc(CNc4ccccn4)cs3)cs2)c2ccccc21 (stereo not shown) [Example I.B.118, 6-Oxo-5-[(4-{[({4-[(2-pyridinylamino)methyl]-2-thienyl}methyl)-amino]carbonyl}-1,3-thiazol-2-yl)methyl]-6,11-dihydro-5H-dibenzo [b,e]azepin-11-yl acetate] | best results
